According to US20130260365A1, “HIGHLY EFFICIENT PROCESS FOR PRODUCING BIOETHANOL” (HONDA MOTOR CO., LTD., priority 2012, published 2013):

How the values were obtained:
[1] = tested on: fermentative microorganism cell (yeast); settings: for growth inhibition of fermentative microorganism cell: acetic acid 1000 or 500 mg/L, or formic acid 400 mg/L, added to reagent sugar solution, after 24 hours, compared with no organic acid added
[2] = tested on: fermentative microorganism cell (yeast); test: microbe, parasite or virus in culture; settings: Saccharomyces cerevisiae, 24 h, read-out: Growth inhibition (%)
Experimental: Sugar solutions to which acetic acid or formic acid was added were prepared for comparison with a reagent sugar solution containing no organic acid, and the fermentative microorganism cell of the same count was added to each sugar solution and cultured. At this time, the pHs of the reagent sugar solutions were adjusted to be the same. The absorbance of the microorganic counts was measured 24 hours later. Using the sugar solution to which acetic acid or formic acid was not added as the criterion, the degrees of growth inhibition are shown below.

[3] = tested on: fermentative microorganism cell; settings: acetic acid added to give 17.79 mM vs sugar solution without acetic acid
Experimental: A model experiment was subsequently carried out. After 72 hours from feeding a microorganism cell to a rice straw sugar solution at 50° C.

## O=CO [Formic acid, formic acid]
[1]
  growth inhibition of fermentative microorganism cell: growth inhibition of fermentative microorganism cell was observed
[2]
  inhibition at 10000 µM: 5.6%
  inhibition at 20000 µM: 61.1%
  inhibition at 30000 µM: 71.4%

## CC(=O)O [Acetic acid, acetic acid]
[1]; 3000 mg/L of acetic acid added to the reagent sugar solution
  growth of the fermentative microorganism cell: no growth
[1]
  growth inhibition of fermentative microorganism cell: growth inhibition of fermentative microorganism cell was observed
[2]
  inhibition at 5900 µM: 10.4%
  inhibition at 11900 µM: 28.8%
  inhibition at 17800 µM: 75.3%
[3]
  microorganic growth (absorbance): evidently poorer
